Source: article PMC12067128, “Macrocyclization: Enhancing Drug-like Properties of Discoidin Domain Receptor Kinase Inhibitors” (ACS Medicinal Chemistry Letters, 2025)

Assays:
EPSA polarity descriptor = type: physicochemical; details: almost fully nonpolar environment; polarity in nonpolar environment
Description: (§1) Polarity is quantified by two descriptors: EPSA and Δlog kw ^IAM. The first is measured in an almost fully nonpolar environment, and the second describes polarity in an aqueous medium. […] This is also in line with the higher solubility of KIMCs over 1.

Kinetic solubility = type: physicochemical
Description: Using a stock solution of test compound in 100% DMSO, duplicate dilutions were prepared at a nominal concentration of 200 µM in 0.1 M phosphate buffered saline (PBS) at pH 7.4, with a 2% final DMSO content. Test compound calibration standards were prepared at 200 µM and 10 µM in 100%
DMSO. The PBS and DMSO dilutions were equilibrated on a shaking platform at room temperature for two hours prior to filtration using a Multiscreen HTS solubility filter plate (Millipore). Filtrates were analysed by LC-UV-MS and the concentration of compound in PBS filtrate determined by comparing the UV absorbance peak with that of the two DMSO calibration standards. Mass spectrometry will be used to confirm the presence of the expected molecular ion in the UV peak measured. The effective range of the assay is 5 – 200 µM. […]

[1] = BRlogD chromatographic lipophilicity; type: physicochemical; details: XBridge Shield RP18, pH 7.0, 60% acetonitrile
Description: The original method was described in a previous paper.e Briefly, a HPLC Thermo Fisher Scientific Dionex Ultimate 3000 instrument equipped with a Low-Pressure Mixing Gradient Pump LPG-3400 SD, ACC-3000 autosampler with termostatable column compartment, a DAD-3000 RS Detector and Chromeleon Data System Version 7.2.10 was used. Deionized water and HPLC grade acetonitrile were used throughout. The mobile phases consisted of 20 mM ammonium acetate at pH 7.0 and acetonitrile 60% v/v. Samples were dissolved in a 1:1 mixture of buffer/acetonitrile in the concentration range of 50–100 ug/mL. A 10uL volume of each solution was injected at 30°C and flow rate was 1 mL/min. The dead time, t0, was determined by monitoring the baseline disturbance.
retention time (tR) was measured on a XBridgeTM Shield RP18 (Waters, 5cm x 4.6 mm, 5 µm particle size, 130Å pore size). Isocratic log k’ (capacity factor k’ = (tR - t0)/t0) values were measured. The relationship between log D and log k’60 has been determined previously and is reported below (Eq.
We termed this log D as BRlogD.

[2] = ChromLogD chromatographic lipophilicity; type: physicochemical; details: C18 column, pH 7.4
Description: The chromatographic method was based on the differential retention times of test compounds on a C18 column (Luna C18(2), 30 x 2mm, […], 100 Å) under controlled liquid chromatography conditions, comparing retention times with those of standards (Benzyl Alcohol, p-Nitrophenol, Bromobenzene, Anthracene) with known log D values. Stock solutions (10 mM in DMSO) of test compounds were diluted to a final concentration of 1 mM. The mobile phases consisted of A (20mM Ammonium Acetate buffered to pH 7.4 with ammonia hydroxide) and B (ACN). The LC gradient profile was the following: a linear increase to 90% B during 0.0 to 1.3 min, hold at 90 % B during 1.3 to 1.53 min then back to 0.0% B from 1.53 to 1.60 min, hold at 0% B until the end of the run (2.00 min). 1 μL of the sample volume was injected, using a flow rate of 0.5 mL/min and a column temperature of 40°C. All compounds were detected by UPLC/MS analysis using a a Waters ACQUITY UPLC equipped with a Photo Diode Array (PDA) detector coupled with a Waters ACQUITY QDa single quadrupole mass spectrometer with an Electrospray ionization (ESI) source.
The retention times were obtained by processing data in Waters Openlynx. The standards are then plotted in excel and the best fit line was used as the basis for calculating the unknown LogD values from the retention times of the peaks obtained.

[3] = log k'80 PLRP-S chromatographic descriptor; type: physicochemical; details: surrogate of log Dtol
Source text: (§2) Lipophilicity has been obtained in four different systems. BRlogD and ChromlogD are chromatographic surrogates of log Doct and, despite showing different values, are linearly correlated (Figure S4). Log k′ 80 PLRP-S is a surrogate of log Dtol. Log kw ^IAM mimics the interaction between the compounds and the phospholipids of membranes. The combination of the experimental lipophilicity descriptors is essential to evaluate lipophilicity in different regions of the membrane bilayer. This complete lipophilicity profile may give an idea of the permeability potential of poorly soluble compounds for which standard permeability measurements are unreliable. […] This is supported by its low IC50 value in the cell-based assay.

[4] = Chamelogk chameleonicity descriptor; type: physicochemical; details: >0.6 = chameleons, <0.6 = non-chameleons
Description: Finally, chameleonicity was measured with the recently described Chamelogk method (Table ), where 0.6 is the threshold value to distinguish chameleons from non-chameleons.

[5] = log kW IAM (immobilized artificial membrane chromatography); type: physicochemical; details: lipophilicity descriptor, phospholipid interaction
Source text: as §2

DDR1 = molecular target: T1, DDR1 (Homo sapiens, UniProt Q08345); experiment: PathHunter U2OS DDR1 Functional Assay (DDR1 cellular assay); type: cell-based; details: U2OS PathHunter cells, collagen II stimulation; read-out: Cell DDR1 IC50
T1 construct: ProLink™ (PK) tagged full-length DDR1b; host or cells: U2OS human osteosarcoma cells (PathHunter U2OS DDR1)
Description: page 17: In vitro Biology DDR1 cellular assay The activity of Discoidin Domain-containing Receptor protein kinase (DDR) inhibitors was determined using the PathHunter® U2OS DDR1 Functional Assay which employs Enzyme Fragment Complementation (EFC) technology, where the β-galactosidase (β-gal) enzyme is split into two fragments, ProLink (PK) and Enzyme Acceptor (EA). Independently these fragments […] β-gal enzyme. In the PathHunter® U2OS DDR1 Functional Assay, the U2OS human osteosarcoma cell line is modified to co-express a ProLinkTM (PK) tagged full-length DDR1b and an Enzyme Acceptor (EA) tagged SH2 domain. Collagen II, as a ligand, induces activation of DDR1b which results in cross-phosphorylation. The SH2-EA fusion protein then specifically binds the phosphorylated receptor resulting in complementation of the two fragments of β-gal and formation of a functional enzyme. β-gal activity is then quantitatively detected using a chemiluminescent substrate. PathHunter® Human U2OS DDR1 cells were prepared in AssayCompleteTM Cell Plating 16 Reagent (DiscoverX 93-0563R16A) and plated at 5000 cells/well in a 384-well white, clear-bottom, sterile plate (ThermoFisher 142762) and incubated for 90 minutes at 37 °C, 5% CO2. Test compounds were serially diluted from a top concentration of 10 mM (1000x final assay concentration) directly in a 384-well low-volume polypropylene plate (Greiner bio-one 784201) using an Echo 555 acoustic liquid handler (Labcyte). Test compounds were diluted in AssayCompleteTM Cell Plating 16 Reagent then added to cells using an Integra ViaFlow384 electronic reagent dispenser and pre-incubated at 37 °C, 5% CO2 for 30 minutes. Following compound pre-incubation, the cells were stimulated with 20 μg/ml Bovine Type II Collagen (DiscoverX 92-1090) with incubation for 20 hours at 37 °C, 5% CO2. Next, PathHunter Detection Reagent (DiscoverX 93-[…]) was added to the cells, incubated for 60 minutes at 25 °C in the dark, prior to capturing the chemiluminescent signal on a PHERAstar (BMG LABTECH). The percentage of inhibition was calculated for each concentration of compound using a 0.1% DMSO vehicle/Collagen II control response as a 0% inhibition and a 10 nM Dasatinib/Collagen II positive 17 page 18: control response as a 100% inhibition. The final assay concentration of the top of the test compound CRC was 10 μM. 18

[6] = Δlog kW IAM polarity descriptor; type: physicochemical; details: polarity in aqueous medium
Description: as §1

[7] = Microsomes stability (clearance in human microsomes); type: in vitro ADME; details: liver microsomes, pH 7.4, 0.8 mg protein/mL, 1 mM NADPH, 37 °C, read-out: CLint h mic (clearance in human microsomes)
Description: values in Caco-2 assay were: <10 nm/s = low level; 10-50 nm/s = medium level; >50 nm/s = high […]
Test compounds were incubated, in duplicate, at the concentration of 1 μM with liver microsomes (0.8 mg protein/mL) in Dulbecco’s buffer (pH 7.4) at 37 °C in the presence of 1 mM NADPH. At different time points (0, 5, 10, 20, 30, and 60 min), 50 μL aliquots of the incubates were taken, added with 80 μL of ice-cold acetonitrile, and 20 μL of 1 μM warfarin in acetonitrile (injection check) to stop the reaction, and samples were centrifuged. The supernatants were analyzed by LC−MS/MS for unchanged compounds. Test compounds were incubated with liver microsomes in Dulbecco’s buffer in the absence of NADPH for 0 and 60 min, as control. Midazolam at the concentration of 1 μM, was incubated with microsomes as positive control for phase I activity of microsomes. Control samples were processed as test compound samples.

T1 sequence (Q08345 19-913): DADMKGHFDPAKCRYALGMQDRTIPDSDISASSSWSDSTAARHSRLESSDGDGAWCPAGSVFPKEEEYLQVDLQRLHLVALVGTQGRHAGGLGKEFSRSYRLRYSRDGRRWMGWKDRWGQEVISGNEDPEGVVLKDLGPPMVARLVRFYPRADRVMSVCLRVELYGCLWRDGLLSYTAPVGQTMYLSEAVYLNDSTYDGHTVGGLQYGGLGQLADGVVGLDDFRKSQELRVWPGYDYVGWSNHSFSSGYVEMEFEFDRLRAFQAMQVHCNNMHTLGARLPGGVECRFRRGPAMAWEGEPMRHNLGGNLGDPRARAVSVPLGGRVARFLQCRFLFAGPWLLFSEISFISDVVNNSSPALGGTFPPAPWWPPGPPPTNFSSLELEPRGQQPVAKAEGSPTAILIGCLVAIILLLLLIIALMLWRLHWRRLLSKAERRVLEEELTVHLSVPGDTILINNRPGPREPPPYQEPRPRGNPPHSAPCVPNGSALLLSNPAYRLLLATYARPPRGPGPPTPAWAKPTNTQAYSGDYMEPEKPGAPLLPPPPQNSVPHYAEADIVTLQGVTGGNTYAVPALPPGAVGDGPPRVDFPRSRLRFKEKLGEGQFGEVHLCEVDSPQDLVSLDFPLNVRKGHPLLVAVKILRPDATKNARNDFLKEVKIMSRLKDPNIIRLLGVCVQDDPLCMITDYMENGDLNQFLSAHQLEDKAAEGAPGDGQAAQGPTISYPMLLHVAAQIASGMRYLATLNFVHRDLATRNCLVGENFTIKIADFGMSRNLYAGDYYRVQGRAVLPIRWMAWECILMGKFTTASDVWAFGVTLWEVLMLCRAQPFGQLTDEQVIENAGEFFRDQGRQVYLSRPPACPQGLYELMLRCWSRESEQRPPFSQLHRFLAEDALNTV

Cc1ccc(C(=O)Nc2cccc(C(F)(F)F)c2)cc1-c1cc2nc(Nc3cnn(C)c3)ncc2[nH]1 [Compound 1]
EPSA (EPSA polarity descriptor): 106 A^2
kinetic solubility (in words) (Kinetic solubility): almost insoluble
solubility kinetic at 2 h (Kinetic solubility; phosphate buffered saline, PBS pH 7.4, 2% DMSO, 2 h room temperature, assay range 5-200 µM, read-out: KS (kinetic solubility)): < 5 µM
BRlogD [1]: 3.36
chromatographic logD [2]: 2.92
logk'80 PLRP-S [3]: -0.3
Chamelogk [4]: 0.99
log kW^IAM [5]: 2.53
IC50 (DDR1): 3 nM
Δlog kW^IAM [6]: 0.47
microsomal CLint at 1 h, 1 µM [7]: 19 ± 2.1 µL/min/mg
